{"source": "ChEMBL document CHEMBL4706618", "about": "“Discovery of lysosome-targeted covalent anticancer agents based on isosteviol skeleton” (Eur J Med Chem, 2021)", "assay": "GSH reactivity in pH 7.4 sodium phosphate deuterium oxide buffer assessed as half life in presence of glutathione measured up to 6 hrs by 1H NMR analysis", "type": "ADME", "conditions": "sodium phosphate deuterium oxide buffer with glutathione"}
{"smiles": "C=C1C(=O)C=C[C@]2(C)[C@@H]1CC[C@@]13C/C(=N\\OC)[C@@](C)(CC[C@H]12)C3", "values": [{"measurement": "half-life", "value": 30, "unit": "min"}]}
